Assay [1] relates to plasmid pTG11236. Kind of assay: Gel retardation assay (DNA binding). As for the experimental part: 3μg of the plasmid pTG11236 were incubated with increasing amounts of the respective peptide in a final volume of 30 μl with 0.9% NaCl. After 20 min of incubation at room temperature, 6 μl 5× loading buffer (glycerol and bromphenol blue in TAE buffer) were added and 10 μl of these solutions were analyzed on a 1% agarose gel in the presence of ethidium bromide.
The ability of ppTG1 peptide to complex DNA was analyzed by gel retardation assays. […] After 20 minutes incubation at room temperature, loading buffer was added and 10 μl of the resulting solution were analyzed on a 1% agarose gel.
ppTG1 derivatives as they are indicated in Materials and Methods, were tested for their capacity to bind plasmid DNA by gel retardation assays.

Assay [2] deals with 293-EBNA cells. The experiment in a line: Transfection in vitro, luciferase plasmid pTG11056. The assay is classed as cell-based. On the procedure: Cells were plated on 24 well plates at a density of 4×10^4 (293-EBNA ) or 7×10^4 (HeLa, Renca) cells/well in DMEM supplemented with 10% FCS. The next day, the medium was replaced by 200 μl serum-free DMEM and plasmid (pTG11056 or pTG11236)/peptide complexes or plasmid/peptide/lipid complexes were prepared in 30 μl 0.9% NaCl or 5% glucose. After 20 min at room temperature these complexes were added to the cells which were then incubated for 2-3 h at 37° C. and 5% CO2 before 1 ml serum-containing DMEM was added. Approximately 20-hours later, cells were lysed by addition of 100 μl 1× Promega lysis buffer, 20 μl of the lysates were analysed for luciferase activity. Proteins were quantified with the bicinchonic acid (BCA) colorimetric method (Smith, Anal. Biochem. 150 (1985), 76-85).
4×10^4 293-EBNA cells, plated on 24 well plates the day before, were transfected with 0.5 μg, 0.1 μg, 0.05 μg and 0.01 μg of the plasmid pTG11056. The plasmid was either mixed with completely or uncompletely DNA-complexing amounts of ppTG1 in 30 μl 5% glucose and after 20 min at room temperature the mixture was added to the cells which were incubated in 200 μl serum-free medium. Further, pTG11056 was formulated with the established transfection reagents Lipofectin and PEI. […] After twenty hours, cells were washed and luciferase activity was determined in ⅕ of the lysed cells.

The subject of assay [3] is WiDr, MDA-MB-435S, SW480 and LoVo. The experiment in a line: Transfection of human tumor cell lines. In kind it is cell-based. Conditions: ppTG1/plasmid pTG11236 complexes, luciferase day 1. On the procedure: WiDr (ATCC CCL-218), MDA-MB-435S (ATCC HTB-129), SW480 (ATCC CCL-228) and LoVo cell (CCL-229) were cultivated in the appropriate medium with 10% fetal calf serum, 1% gentamycine, 1% glutamine and 3 g/l glucose, in an incubator at 37° C. and 5% CO2.
The transfection efficiencies with plasmid/ppTG1 complexes were tested in the human tumor cells WiDr, MDA-MB-435S, SW480 and LoVo (ATCC) in comparison to lipofectin, PEI and pcTG90/DOPE (1:1) [+/−] 5.

The test system of assay [4] is B6SJL mice. As for the experimental part: Indicated amounts of the luciferase expression plasmid pTG11236 were mixed with ppTG1 and /or pcTG90/DOPE. The resulting formulations were injected intramuscularly(30 μl), intravenously(250 μl) into mice or intratumorally (Renca tumors, 100 μgl). Muscles, tumors or organs were recovered at the indicated points of time, macerated and tested for luciferase activity with the luciferase assay kit from Promega.
60 μg or 30 μg of the plasmid pTG11236 were mixed with peptide ppTG1 and/or with a pcTG90/DOPE 1:2 mixture in 250 μl 5% glucose. After 20 min incubation at room temperature, the complexes were intravenously injected into B6SJL mice. Mice were sacrificed at day 1. The lungs were recovered, total protein was extracted and luciferase activity was analysed.
The potential of gene transfer with mono-component peptide vectors was investigated in vivo. Fifty or sixty μg of the luciferase expression plasmid pTG11236 were complexed with pcTG90/DOPE (1:2) [+/−] 10 in 250 μl 5% glucose (Meyer et al. 2000). The resulting lipoplex vector served as reference for gene transfer studies with pTG11236 complexed with ppTG1, ppTG20 and ppTG32 in 250 μl 5% glucose. Five mice per group were intravenously injected, the animals were sacrificed at day 1 after injection. Lungs were tested for luciferase activity.

The mark [5] stands for this setting: 60 μg pTG11236 with 150 μg ppTG1.

One sequence from US20020055174A1, “Complex for transferring an anionic substance of interest into a cell” (priority 2000, published 2002) can be followed below.

“Also recorded” adds a separate entry of the source. Ends that are not written are not given here.

Consider GLFKALLKLLKSLWKLLLKA, for which the “amount of peptide at which 50% of the DNA is complexed” value in assay [1] (3 μg pTG11236, 1 μg = 0.35 nmol) came to 1 µg. Besides, the “amount of peptide giving retardation of plasmid” value in assay [1] (3 μg plasmid DNA (0.8 pmol), 4 μg peptide = 1.4 nmol) was determined as 4 µg. Also, the transfection efficiency entry in assay [2] (0.05 μg pTG11056 mixed with 0.065 μg ppTG1, charge ratio around 1) is “still showed high transfection efficiency”. For the same sequence, the luciferase activities entry in assay [2] (0.5 μg pTG11056 complexed with 0.65 μg ppTG1, charge ratio around 1) is “higher than those observed with complexes formed with Lipofectin or PEI”. The “transfection of human tumor cell lines” value in assay [3] is reported as “successfully transfected; also recorded: can efficiently transfect human tumor cell lines, especially SW480 cells”. Also, in assay [4] (setting [5]), the “reporter gene expression after re-administration at day 3” value is on record as “still refractory” and the “reporter gene expression after re-administration at day 14” value was “re-appearance of reporter gene expression”. The “mice with gene expression in the lung” value in assay [4] (complexes of pTG11236 and ppTG1, i.v., day 1) is on record as 5 out of 5. For the same sequence, the “gene expression 3 days after injection” value in assay [4] (ppTG1/plasmid complexes, data not shown) is given as “dropped 3 days after injection to background levels”.
